Laboratory results as given in patent EP4592286A1, “MACROCYCLIC NITROGEN-CONTAINING CROWN ETHER COMPOUND AND USE THEREOF AS PROTEIN KINASE INHIBITOR” (Artivila Biopharma, priority 2022, dated 2024).
In brackets after ≈: the same amount, converted by molar mass.

Key:
LRRK2 [1] = molecular target: T1, LRRK2 (Homo sapiens, UniProt Q5S007); assay: experiment of inhibiting kinase activity, LRRK2; type: biochemical; settings: for inhibition at 0.01 µM: at 10 nM
Protocol: (§1) The inhibition rates of tested compounds on JAK1, JAK2, JAK3, TYK2, CDK7, CDK9, EGFR (T790M) and LRRK2 kinases were measured. The test concentrations of the compounds were 10 nM and 100 nM, and the detection was performed by replicate wells. Alternatively, compounds were 3-fold serial diluted from 10 µM for 10 concentrations in replicate wells.

wild-type LRRK2 = molecular target: T2, wild-type LRRK2 (Homo sapiens, UniProt Q5S007); assay: detection of phosphorylated S935 in HEK293T overexpressing wild-type LRRK2; type: cell-based; settings: pS935, HEK293T overexpressing wild-type LRRK2, 1.5 hours
T2 construct: pCMV-flag-WT LRRK2 (full-length); expressed in transfected cells; host or cells: HEK293T
T2 sequence (Q5S007 whole entry): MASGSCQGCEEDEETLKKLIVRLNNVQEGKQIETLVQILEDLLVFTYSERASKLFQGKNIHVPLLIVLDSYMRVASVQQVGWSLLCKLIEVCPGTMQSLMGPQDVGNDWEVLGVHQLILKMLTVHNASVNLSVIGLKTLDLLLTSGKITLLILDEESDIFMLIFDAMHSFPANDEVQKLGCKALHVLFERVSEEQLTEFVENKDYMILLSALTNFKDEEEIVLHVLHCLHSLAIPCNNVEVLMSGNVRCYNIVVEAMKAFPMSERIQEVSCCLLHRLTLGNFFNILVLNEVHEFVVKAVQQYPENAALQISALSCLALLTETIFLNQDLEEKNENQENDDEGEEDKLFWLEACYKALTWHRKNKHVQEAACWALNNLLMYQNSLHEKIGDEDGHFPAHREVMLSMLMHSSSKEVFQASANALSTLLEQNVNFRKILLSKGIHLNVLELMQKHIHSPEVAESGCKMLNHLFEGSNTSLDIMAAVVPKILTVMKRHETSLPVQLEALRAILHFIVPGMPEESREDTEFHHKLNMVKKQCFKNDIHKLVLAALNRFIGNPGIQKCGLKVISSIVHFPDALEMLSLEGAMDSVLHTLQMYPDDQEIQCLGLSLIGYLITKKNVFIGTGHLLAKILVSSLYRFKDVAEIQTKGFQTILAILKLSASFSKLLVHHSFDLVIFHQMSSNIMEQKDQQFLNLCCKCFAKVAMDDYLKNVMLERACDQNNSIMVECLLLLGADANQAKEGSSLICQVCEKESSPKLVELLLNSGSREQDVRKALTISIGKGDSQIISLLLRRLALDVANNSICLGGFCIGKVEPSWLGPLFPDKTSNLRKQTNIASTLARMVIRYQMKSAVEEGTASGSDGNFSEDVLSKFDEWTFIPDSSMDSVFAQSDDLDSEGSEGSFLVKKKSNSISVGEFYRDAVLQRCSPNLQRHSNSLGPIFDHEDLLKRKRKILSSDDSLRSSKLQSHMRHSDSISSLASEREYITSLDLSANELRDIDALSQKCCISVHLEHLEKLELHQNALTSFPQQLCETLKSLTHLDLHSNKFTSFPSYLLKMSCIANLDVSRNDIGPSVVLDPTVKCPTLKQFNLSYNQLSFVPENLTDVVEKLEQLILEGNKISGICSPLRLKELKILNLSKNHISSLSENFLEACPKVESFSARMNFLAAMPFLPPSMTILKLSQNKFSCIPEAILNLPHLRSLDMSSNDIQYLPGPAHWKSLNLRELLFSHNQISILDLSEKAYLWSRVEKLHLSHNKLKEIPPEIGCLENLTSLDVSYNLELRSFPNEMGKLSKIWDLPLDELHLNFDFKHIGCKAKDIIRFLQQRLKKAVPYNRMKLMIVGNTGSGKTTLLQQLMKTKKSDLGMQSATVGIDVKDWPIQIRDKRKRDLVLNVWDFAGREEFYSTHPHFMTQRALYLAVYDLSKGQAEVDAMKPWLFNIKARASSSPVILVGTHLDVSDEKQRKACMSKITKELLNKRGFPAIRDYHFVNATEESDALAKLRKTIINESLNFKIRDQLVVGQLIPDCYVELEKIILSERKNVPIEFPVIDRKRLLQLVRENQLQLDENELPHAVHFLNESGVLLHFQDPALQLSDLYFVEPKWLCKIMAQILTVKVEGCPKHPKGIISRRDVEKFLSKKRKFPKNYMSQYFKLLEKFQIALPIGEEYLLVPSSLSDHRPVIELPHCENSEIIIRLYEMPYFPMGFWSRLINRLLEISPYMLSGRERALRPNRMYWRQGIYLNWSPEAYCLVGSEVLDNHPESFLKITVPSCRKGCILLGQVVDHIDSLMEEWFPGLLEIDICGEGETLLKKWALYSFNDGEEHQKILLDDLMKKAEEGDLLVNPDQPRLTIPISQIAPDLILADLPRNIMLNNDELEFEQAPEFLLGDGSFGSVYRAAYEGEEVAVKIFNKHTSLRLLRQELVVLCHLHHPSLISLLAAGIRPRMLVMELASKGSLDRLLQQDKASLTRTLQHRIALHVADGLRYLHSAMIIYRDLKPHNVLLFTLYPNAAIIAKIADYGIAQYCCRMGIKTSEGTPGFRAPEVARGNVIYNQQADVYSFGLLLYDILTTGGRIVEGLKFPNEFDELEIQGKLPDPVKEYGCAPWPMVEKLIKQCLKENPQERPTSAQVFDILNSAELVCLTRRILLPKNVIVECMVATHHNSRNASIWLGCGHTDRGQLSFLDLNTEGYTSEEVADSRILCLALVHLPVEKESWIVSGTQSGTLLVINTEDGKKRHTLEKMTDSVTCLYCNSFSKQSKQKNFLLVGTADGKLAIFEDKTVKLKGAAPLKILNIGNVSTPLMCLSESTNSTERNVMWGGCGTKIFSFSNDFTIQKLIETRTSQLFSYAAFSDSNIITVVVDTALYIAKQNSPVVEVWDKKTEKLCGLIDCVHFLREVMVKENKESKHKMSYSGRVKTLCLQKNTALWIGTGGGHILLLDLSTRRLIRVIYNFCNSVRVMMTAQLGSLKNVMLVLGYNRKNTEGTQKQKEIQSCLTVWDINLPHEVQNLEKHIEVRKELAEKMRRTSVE
Protocol: Detection of phosphorylated S935 in HEK293T Overexpressing full-length LRRK2 (G2019S) or wild-type LRRK2
HEK293T cells was inoculated into a 6-well plate and cultured overnight. The next day, they were transiently transfected with plasmid pcDNA5-FRT/TO-FLAG LRRK2 (G2019S, full-length) or pCMV-flag-WT LRRK2 (full-length) by using Superfect transfection reagent and cultured at 37°C and 5% CO2 for 20-24 hours. The next day, cells were collected, resuspended at a density of 0.48×10^6 cells/ml, and inoculated into a 384-well plate at 50 microliters/well. Compound or DMSO solutions (volume ratio of 0.5%) were added by Tecan, and cultured at 37°C and 5% CO2 for 1.5 hours. After 1.5 hours, the supernatant was discarded, 50 microliters of 8% PFA were added in each well to fix the cells, and the cells were incubated at room temperature for 1 hour. The plate was washed with EL406 plate washer for three times, with 115 microliters of PBST per well, and the culture plate was patted to dryness. The cells were blocked with 50 microliters/well of Licor Odyssey blocking solution (0.1% Tween 20) at room temperature for 1.5 hours. The blocking solution was discarded and the culture plate was patted to dryness. 20 microliters of primary antibody (1:1000(pS935), diluted with Licor Odyssey buffer (0.1% Tween20)) was added into each well, and incubated at 4 °C overnight. The next day, the first antibody was discarded and washing was performed with PBST for five times. 20 microliters of secondary antibody (diluted with Licor Odyssey buffer (0.1% Tween20) at 1:500 and stained with DNA at 1:2000) were added into each well, and incubated at room temperature for 1 hour. The second antibody was discarded, and washing was performed for three times with PBST. The fluorescence intensity was measured by LICOR Odyssey imager Scanner, and the data was analyzed.

[2] = measurement of the solubility of compounds in water and diluted hydrochloric acid; type: physicochemical; settings: thermodynamic from solid; for solubility at 1 h: simulated gastric fluid, diluted hydrochloric acid solution A (pH-1.5), room temperature; for solubility: ultrapure water (pH-6), room temperature overnight
Protocol: Example 117: measurement of the solubility of compounds in water and diluted hydrochloric acid
The compounds were dissolved in acetonitrile (LCMS pure) and prepared into standard samples having the concentration gradient of 1000 µg/mL, 500 µg/mL, 250 µg/mL, 125 µg/mL, 62.5 µg/mL, and 31.25 µg/mL.
(§2) About 1.0 mg of the powder of the compound to be tested was weighed and added to 0.3 mL of ultrapure water (pH-6), the resulting mixture was shaked thoroughly at room temperature overnight and centrifuged, and the supernatant was taken and diluted 10 times with acetonitrile. The sample was analyzed after mixing evenly.
as §2, with “153.8 µL of 6 M HCl was pipetted, 20 mL of water was added, and mixed evenly to prepare diluted hydrochloric acid solution A (pH-1.5). About” for “About”, “diluted hydrochloric acid solution A,” for “ultrapure water (pH-6),”, “for 1 hour” for “overnight”
The standard sample and the sample to be tested were analyzed by Shimadzu LCMS-2020, where chromatographic column was Skim-psck GIST 5 µm C18 2.1*[…]; mobile phase A was water and mobile phase B was methanol; and flow rate was 0.3 mL/min. The gradient of B was as the following: 0 min: 10%; 0-1.0 min: 10%; 1.0-2.5 min: 95%; 3.0-4.0 min: 95%; 4.0-4.1 min: 10%; 4.1-6.0 min: 10%.
The relationship between the concentration and peak area of the standard sample was ploted into a standard curve, and the concentration of the sample to be tested was calibrated using this standard curve. Compound solubility = concentration of the sample to be tested × 10 [formula]

LRRK2 [3] = molecular target: T1, LRRK2; assay: experiment of inhibiting LRRK2 kinase activity (ADP-Glo method); type: biochemical; settings: Table 4
[4] = molecular target: T3, endogenous phosphorylated LRRK2 (S935) (Homo sapiens, UniProt Q5S007); assay: detection of endogenous phosphorylated LRRK2 (S935) in A549 cells (Western blot); type: cell-based; settings: at 2 µM, LRRK2 (S935) activity in A549 cells, 15 hours; read-out: Inhibition rate
T3 construct: Detection of endogenous phosphorylated LRRK2 (S935) in A549 cells; endogenous in cells; host or cells: A549
T3 sequence (Q5S007 whole entry): as above
Protocol: Detection of endogenous phosphorylated LRRK2 (S935) in A549 cells
A549 cells were resuspended in serum-free 1640 medium at a density of 1×10^6 cells/ml, and inoculated into a 6-well plate at 1 ml/well, and cultured at 37°C and 5% CO2 for 6-8 hours. 1 microliter of compound solution in DMSO or DMSO (volume ratio of 0.1%) was added, mixed evenly, and cultivated at 37°C and 5% CO2 for 15 hours. Cells were collected, 50 microliters of RIPA III lysis solution were added to each sample to lyse cells on ice for 15 minutes, centrifuged at 4°C and 13000 rpm for 30 minutes, the supernatant was collected, the protein concentration of cell lysis solution was measured by BCA, and the protein concentrations of all samples were normalized. 5×sample loading buffer were added and kept at 95°C for 10 minutes. The content of phosphorylated S935 of endogenous LRRK2 was detected by Western blot, using antibody against phosphorylated LRRK2 (S935) (Abcam#133450). The signal intensity of phosphorylated LRRK2 (S935) was counted by Image J, the signal of phosphorylated LRRK2 (S935) in a sample was normalized by β-actin, and the data was analyzed.

JAK1 = JAK1 (Homo sapiens, UniProt P23458); assay: experiment of inhibiting kinase activity (Caliper mobility shift assay), JAK1; type: biochemical; settings: at 100 nM; read-out: inhibition rate JAK1
Summary of the method: (§3)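 Inhibition is measured as reduced conversion of substrate by the kinase, separated by microfluidic mobility shift after a room-temperature reaction started with ATP/substrate following a 10-min compound preincubation. Test doses are 10 nM, 100 nM, or a 10-point 3-fold series from 10 µM.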

JAK2 = JAK2 (Homo sapiens, UniProt O60674); assay: experiment of inhibiting kinase activity (Caliper mobility shift assay), JAK2; type: biochemical; settings: read-out: inhibition rate JAK2
JAK2, sequence (O60674 whole entry): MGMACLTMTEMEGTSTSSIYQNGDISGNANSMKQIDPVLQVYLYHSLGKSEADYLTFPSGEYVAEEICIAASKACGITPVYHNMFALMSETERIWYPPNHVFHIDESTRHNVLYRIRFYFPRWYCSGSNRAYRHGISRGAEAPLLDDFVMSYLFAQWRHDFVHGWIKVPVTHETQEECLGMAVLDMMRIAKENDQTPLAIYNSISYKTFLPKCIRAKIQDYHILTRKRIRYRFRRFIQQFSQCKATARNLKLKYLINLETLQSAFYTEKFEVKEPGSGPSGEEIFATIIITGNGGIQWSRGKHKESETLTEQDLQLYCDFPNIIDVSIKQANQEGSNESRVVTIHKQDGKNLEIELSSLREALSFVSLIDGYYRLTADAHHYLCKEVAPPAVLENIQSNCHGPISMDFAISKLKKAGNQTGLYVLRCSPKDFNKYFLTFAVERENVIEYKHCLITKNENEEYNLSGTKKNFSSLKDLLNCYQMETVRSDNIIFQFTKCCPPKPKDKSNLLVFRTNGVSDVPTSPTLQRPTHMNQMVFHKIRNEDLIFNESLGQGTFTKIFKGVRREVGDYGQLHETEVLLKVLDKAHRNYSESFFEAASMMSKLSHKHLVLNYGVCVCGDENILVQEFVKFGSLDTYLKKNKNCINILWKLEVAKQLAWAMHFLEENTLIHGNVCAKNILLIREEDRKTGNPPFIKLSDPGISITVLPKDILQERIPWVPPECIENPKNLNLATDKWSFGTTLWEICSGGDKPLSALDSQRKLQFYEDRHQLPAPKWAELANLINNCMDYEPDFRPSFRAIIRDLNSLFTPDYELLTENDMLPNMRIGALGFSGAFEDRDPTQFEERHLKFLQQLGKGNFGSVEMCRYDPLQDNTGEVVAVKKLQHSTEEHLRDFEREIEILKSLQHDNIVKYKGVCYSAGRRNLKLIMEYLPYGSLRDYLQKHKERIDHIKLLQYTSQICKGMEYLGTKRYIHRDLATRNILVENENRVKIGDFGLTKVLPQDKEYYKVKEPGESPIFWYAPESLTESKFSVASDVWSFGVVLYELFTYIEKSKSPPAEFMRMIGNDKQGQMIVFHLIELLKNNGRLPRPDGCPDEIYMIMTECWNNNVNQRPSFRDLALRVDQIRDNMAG
Summary of the method: as §3

JAK3 = molecular target: T4, JAK3 (Homo sapiens, UniProt P52333); assay: experiment of inhibiting kinase activity (Caliper mobility shift assay), JAK3; type: biochemical; settings: read-out: inhibition rate JAK3
T4 sequence (P52333 1-1124): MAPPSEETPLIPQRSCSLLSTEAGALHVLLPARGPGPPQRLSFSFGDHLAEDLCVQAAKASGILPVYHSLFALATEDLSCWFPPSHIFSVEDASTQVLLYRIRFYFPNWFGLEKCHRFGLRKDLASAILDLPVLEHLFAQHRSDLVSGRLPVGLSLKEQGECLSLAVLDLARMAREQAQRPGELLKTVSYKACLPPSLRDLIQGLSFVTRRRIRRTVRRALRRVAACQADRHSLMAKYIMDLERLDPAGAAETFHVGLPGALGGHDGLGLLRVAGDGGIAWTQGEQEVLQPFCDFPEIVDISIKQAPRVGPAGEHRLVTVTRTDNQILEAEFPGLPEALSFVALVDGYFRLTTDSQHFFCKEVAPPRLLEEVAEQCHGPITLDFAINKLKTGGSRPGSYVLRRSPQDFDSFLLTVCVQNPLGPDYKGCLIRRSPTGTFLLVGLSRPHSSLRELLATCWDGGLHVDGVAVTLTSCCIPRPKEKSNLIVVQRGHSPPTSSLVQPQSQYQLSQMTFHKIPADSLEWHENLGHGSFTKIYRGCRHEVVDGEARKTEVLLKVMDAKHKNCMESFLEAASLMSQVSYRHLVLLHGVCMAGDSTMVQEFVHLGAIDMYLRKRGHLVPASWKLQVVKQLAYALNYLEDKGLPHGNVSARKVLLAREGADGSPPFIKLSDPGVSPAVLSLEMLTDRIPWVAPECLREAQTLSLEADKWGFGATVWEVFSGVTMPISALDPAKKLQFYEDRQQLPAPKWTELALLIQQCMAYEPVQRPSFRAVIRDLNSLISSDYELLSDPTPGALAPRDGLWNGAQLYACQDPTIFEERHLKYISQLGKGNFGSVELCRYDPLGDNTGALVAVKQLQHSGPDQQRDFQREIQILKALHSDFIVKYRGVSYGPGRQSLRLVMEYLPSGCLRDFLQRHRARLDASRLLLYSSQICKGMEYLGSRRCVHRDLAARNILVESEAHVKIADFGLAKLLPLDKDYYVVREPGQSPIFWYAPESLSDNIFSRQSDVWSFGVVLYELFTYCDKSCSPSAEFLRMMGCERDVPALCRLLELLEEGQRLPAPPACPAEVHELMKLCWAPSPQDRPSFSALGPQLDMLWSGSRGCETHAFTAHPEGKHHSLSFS
Summary of the method: as §3

TYK2 = TYK2 (Homo sapiens, UniProt P29597); assay: experiment of inhibiting kinase activity, TYK2; type: biochemical; settings: at 100 nM; read-out: inhibition rate TYK2
Protocol: as §1

CDK7 = CDK7 (Homo sapiens, UniProt P50613); assay: experiment of inhibiting kinase activity (Caliper mobility shift assay), CDK7; type: biochemical; settings: read-out: inhibition rate CDK7
CDK7, sequence (P50613 whole entry, species assumed): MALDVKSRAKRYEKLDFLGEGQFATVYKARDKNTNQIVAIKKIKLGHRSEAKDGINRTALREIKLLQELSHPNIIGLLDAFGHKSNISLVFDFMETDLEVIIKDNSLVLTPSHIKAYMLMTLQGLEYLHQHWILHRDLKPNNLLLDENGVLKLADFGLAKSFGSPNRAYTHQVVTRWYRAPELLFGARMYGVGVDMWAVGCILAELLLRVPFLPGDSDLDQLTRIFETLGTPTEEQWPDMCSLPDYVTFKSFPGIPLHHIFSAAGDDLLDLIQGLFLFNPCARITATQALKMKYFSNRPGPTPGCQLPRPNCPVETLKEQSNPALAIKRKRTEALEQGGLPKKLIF
CDK7, sequence (P51946 whole entry partner, species assumed): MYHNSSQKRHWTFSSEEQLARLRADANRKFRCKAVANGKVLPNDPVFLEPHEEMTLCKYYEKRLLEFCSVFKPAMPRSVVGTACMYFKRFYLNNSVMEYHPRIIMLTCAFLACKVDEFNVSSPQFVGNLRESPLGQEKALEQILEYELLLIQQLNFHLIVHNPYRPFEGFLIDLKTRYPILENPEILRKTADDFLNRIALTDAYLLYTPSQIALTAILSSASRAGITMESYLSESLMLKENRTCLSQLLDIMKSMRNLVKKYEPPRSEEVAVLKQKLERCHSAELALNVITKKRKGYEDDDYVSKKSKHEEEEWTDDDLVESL
CDK7, sequence (P51948 whole entry partner, species assumed): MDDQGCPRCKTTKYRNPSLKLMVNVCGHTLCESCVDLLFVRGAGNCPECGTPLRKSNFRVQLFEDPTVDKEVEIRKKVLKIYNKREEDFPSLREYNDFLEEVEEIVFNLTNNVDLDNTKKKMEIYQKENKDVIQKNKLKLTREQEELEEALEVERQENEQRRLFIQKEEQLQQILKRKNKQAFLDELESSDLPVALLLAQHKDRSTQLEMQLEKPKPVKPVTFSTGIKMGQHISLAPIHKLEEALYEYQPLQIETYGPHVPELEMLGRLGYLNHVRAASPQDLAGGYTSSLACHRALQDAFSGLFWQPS
Summary of the method: as §3

CDK9 = CDK9 (Homo sapiens, UniProt P50750); assay: experiment of inhibiting kinase activity (Caliper mobility shift assay), CDK9; type: biochemical; settings: at 100 nM; read-out: inhibition rate CDK9
Protocol: as §1
The inhibitory effects of the compounds on JAK1, JAK2, JAK3, CDK7 and CDK9 kinases were detected by the method of Caliper mobility shift assay. 250 nL of the compound at 100-fold final concentration was transferred to a destination plate 384-well-plate by using a liquid handler Echo 550. A kinase solution at 2.5-fold final concentration was prepared with 1×kinase buffer. 10 µL of the kinase solution with 2.5-fold final concentration was added to compound wells and positive control wells; and 10 µL of 1×kinase buffer was added to negative control wells. The mixture was centrifuged at 1000 rpm for 30 seconds and then incubated at room temperature for 10 minutes. A mixed solution of ATP and kinase substrate at 5/3-fold final concentration was prepared with 1×kinase buffer, and 15 µL of the mixed solution of ATP and substrate at 5/3-fold final concentration was added to start the reaction. The 384-well plate was centrifuged at 1000 rpm for 30 seconds, shaked and mixed evenly, then incubated at room temperature for a corresponding time. 30 µL of stop solution was added to stop the kinase reaction, the mixture was centrifuged at 1000 rpm for 30 seconds, and shaked and mixed evenly. The conversion rate was read by Caliper EZ Reader. The conversion inhibition rate%=(average positive control conversion rate%-sample conversion rate%)/(average positive control conversion rate%-average negative control conversion rate%). Where negative control wells represent the conversion readings of the background well of kinase buffer; and positive control wells represent the conversion readings of wells without compound inhibition. With the log value of concentration as the x axis and the percentage inhibition rate as the y axis, the dose-response curve was fitted by the log (inhibitor) vs. response-variable slope of the analyzing softwar GraphPad Prism 5, and the IC50 values of each compound on enzyme activity were obtained. Calculation formula is as follows: y=Bottom+(Top-Bottom)/(1+10^((LogIC50-x)×hillslope)), where x is logarithm of inhibitor concentration; and Y is % inhibition rate.

[5] = read-out: inhibition rate LRRK2

T1 sequence (Q5S007 whole entry): as the sequence (Q5S007 whole entry) above

CN1CCOc2ccc(Nc3nc(NCCS(C)(=O)=O)c4cc[nH]c4n3)cc2OCC1 [Example 84, N^2-(4-methyl-3,4,5,6-tetrahydro-2H-benzo[b][1,4,7]dioxazolin-9-yl)-N^4-(2-(methylsulfonyl)ethyl)-7H-pyrrolo[2,3-d]pyrimidin-2,4-diamine]
inhibition at 0.01 µM (LRRK2 [1]; [5]): 40 to 79% | IC50 (LRRK2 [1]; kinase activity assay, Table 3): < 50 nM | EC50 (wild-type LRRK2): 1000 to 5000 nM

CN1CCOc2ccc(Nc3ncc(C(F)(F)F)c(NCCP(C)(C)=O)n3)cc2OCC1 [Example 86, dimethyl(2-((2-((4-methyl-3,4,5,6-tetrahydro-2H-benzo[b][1,4,7]dioxazolin-9-yl)amino)-5-(trifluoromethyl)pyrimidin-4-yl)amino)ethyl)phosphine oxide]
solubility at 1 h [2]: > 3830 µg/mL | solubility [2]: 688 µg/mL (≈ 1450 µM) | IC50 (LRRK2 [3]): < 100 nM

CN1CCOCCOc2ccc(Nc3ncc(C(F)(F)F)c(O[C@H]4CC[C@@](C)(O)CC4)n3)cc2OCC1 [Example 7, (1s,4s)-1-methyl-4-((2-((7-methyl-2,3,6,7,8,9-hexahydro-5H-benzo[b][1,4,7]trioxa[10]azacyclododecan-12-yl)amino)-5-(trifluoromethyl)pyrimidin-4-yl)oxy)cyclohexan-1-ol]
solubility at 1 h [2]: > 3770 µg/mL | solubility [2]: 680 µg/mL (≈ 1290 µM) | IC50 (LRRK2 [3]): < 100 nM | inhibition at 2 µM [4]: > 80%

CC(C)S(=O)(=O)c1ccccc1Nc1nc(Nc2ccc3c(c2)OCCOCCNCCO3)nc2[nH]ccc12 [Example 97, N^2-(2,3,6,7,8,9-hexahydro-5H-benzo[b][1,4,7]trioxa[10]azacyclododecan-13-yl)-N^4-(2-(isopropylsulfonyl)phenyl)-7H-pyrrolo[2,3-d]pyrimidin-2,4-diamine]
solubility at 1 h [2]: > 4330 µg/mL | solubility [2]: 180 µg/mL (≈ 326 µM) | inhibition at 0.1 µM (JAK1): 40 to 79% | inhibition at 0.01 µM (JAK2; at 10 nM): > 80% | inhibition at 0.1 µM (JAK2; at 100 nM): > 80% | inhibition at 0.01 µM (JAK3; at 10 nM): 40 to 79% | inhibition at 0.1 µM (JAK3; at 100 nM): > 80% | inhibition at 0.1 µM (TYK2): 40 to 79% | inhibition at 0.01 µM (CDK7; at 10 nM): 40 to 79% | inhibition at 0.1 µM (CDK7; at 100 nM): > 80% | inhibition at 0.1 µM (CDK9): 40 to 79% | inhibition at 0.01 µM (LRRK2 [1]; [5]): > 80% | inhibition at 0.1 µM (LRRK2 [1]; at 100 nM, read-out: inhibition rate LRRK2): > 80%
